# What was measured:
# human EHMT2 913-1193 = target: T1, human EHMT2 913-1193 (Homo sapiens, UniProt Q96KQ7); assay: EHMT2 enzyme assay on histone peptide substrate (3H-SAM SPA); conditions: EHMT2 IC50, recombinant human EHMT2 913-1193, histone peptide substrate
# T1 sequence (Q96KQ7 913-1193): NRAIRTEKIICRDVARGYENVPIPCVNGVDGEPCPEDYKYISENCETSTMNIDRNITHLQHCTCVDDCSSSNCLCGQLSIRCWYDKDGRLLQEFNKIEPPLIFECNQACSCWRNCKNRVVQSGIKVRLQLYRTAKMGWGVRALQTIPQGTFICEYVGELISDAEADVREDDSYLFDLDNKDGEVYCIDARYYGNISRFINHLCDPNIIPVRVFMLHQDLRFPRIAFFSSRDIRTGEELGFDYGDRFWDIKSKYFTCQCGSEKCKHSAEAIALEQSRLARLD
# human EHMT1 982-1266 = target: T2, human EHMT1 982-1266 (Homo sapiens, UniProt Q9H9B1); assay: EHMT1 enzyme assay on histone peptide substrate (3H-SAM SPA); conditions: EHMT1 IC50, recombinant human EHMT1 982-1266, histone peptide substrate
# T2 sequence (Q9H9B1 982-1266): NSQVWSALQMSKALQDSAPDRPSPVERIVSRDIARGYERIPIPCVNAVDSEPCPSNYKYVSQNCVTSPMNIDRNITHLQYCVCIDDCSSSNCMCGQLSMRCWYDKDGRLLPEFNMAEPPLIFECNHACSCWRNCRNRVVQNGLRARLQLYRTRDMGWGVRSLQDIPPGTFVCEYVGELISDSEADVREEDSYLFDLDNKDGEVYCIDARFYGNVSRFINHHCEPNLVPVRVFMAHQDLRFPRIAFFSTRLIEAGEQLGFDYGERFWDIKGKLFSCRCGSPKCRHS
# H3K9me2 in HCT116 cells = assay: HCT116 H3K9me2 in-cell western assay; type: cell-based; conditions: Homo sapiens, HCT-116, 72 h, HCT116 cells, 72 hours incubation; read-out: H3K9me2 ICW IC50
# Outline: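 H3K9me2 signal (800 nm) was normalized to DRAQ5 DNA stain (700 nm) in an in-cell western. Cells were fixed with paraformaldehyde and probed overnight at 4° C with primary antibody.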
SMILES,IC50 (human EHMT2 913-1193),IC50 (human EHMT1 982-1266),IC50 (H3K9me2 in HCT116 cells)
"CNc1cc(C)nc(Nc2cc3c(c(C4=CCN(C)CCC4)c2)OC(F)(F)O3)n1 [Compound 156, N2-[2,2-difluoro-7-(1-methyl-2,3,4,7-tetrahydroazepin-5-yl)-1,3-benzodioxol-5-yl]-N4,6-dimethyl-pyrimidine-2,4-diamine]",100 to 500 nM,< 100 nM,100 to 500 nM
"CNc1cc(C)nc(Nc2cc3c(c(C4=CCN(CCOC)CCC4)c2)OC(F)(F)O3)n1 [Compound 158, N2-[2,2-difluoro-7-[1-(2-methoxyethyl)-2,3,4,7-tetrahydroazepin-5-yl]-1,3-benzodioxol-5-yl]-N4,6-dimethyl-pyrimidine-2,4-diamine]",> 2000 nM,> 2000 nM,> 2000 nM
"CNc1cc(C)nc(Nc2cc3c(c(C4=CCN(C)CCC4)c2Cl)OCCO3)n1 [Compound 165, N2-[6-chloro-5-(1-methyl-2,3,4,7-tetrahydroazepin-5-yl)-2,3-dihydro-1,4-benzodioxin-7-yl]-N4,6-dimethyl-pyrimidine-2,4-diamine]",< 100 nM,< 100 nM,< 100 nM
CNc1cc(C)nc(Nc2cc3c(c(C4=CCN(C)CCC4)c2F)OCC32CC2)n1 [Compound 171],100 to 500 nM,< 100 nM,< 100 nM
CNc1cc(C)nc(Nc2cc3c(c(C4=CCN(C)CCC4)c2F)OCCC3(F)F)n1 [Compound 173],100 to 500 nM,< 100 nM,< 100 nM
CNc1cc(C)nc(Nc2cc3c(c(C4=CCNCCC4)c2F)OCCC3(F)F)n1 [Compound 174],< 100 nM,< 100 nM,< 100 nM
CNc1cc(C)nc(Nc2cc3c(c(C4=CCNCCC4)c2F)OCC3(C)C)n1 [Compound 178],100 to 500 nM,< 100 nM,< 100 nM
CNc1cc(C)nc(Nc2cc3c(c(C4=CCN(C)CCC4)c2F)OCC3C)n1 (stereo not drawn) [Compound 181],100 to 500 nM,< 100 nM,100 to 500 nM
CNc1cc(C)nc(Nc2cc3c(c(C4=C[C@@H](C)NCCC4)c2F)OCC3)n1 [Compound 182],100 to 500 nM,< 100 nM,< 100 nM
CNc1cc(C)nc(Nc2cc3c(c(C4=C[C@H](C)NCCC4)c2F)OCC3)n1 [Compound 185],100 to 500 nM,< 100 nM,< 100 nM
CNc1cc(C)nc(Nc2c(F)c3c(c(C4=CCN(C)CCC4)c2F)OCC3)n1 [Compound 186],500 to 2000 nM,100 to 500 nM,100 to 500 nM
CNc1cc(C)nc(Nc2cc3c(c(C4=CCNCCC4)c2OC)OCC3)n1 [Compound 192],500 to 2000 nM,100 to 500 nM,100 to 500 nM
CNc1nc(Nc2cc3c(c(C4=CCNCCC4)c2F)OCC3)nc(C)c1OC [Compound 194],100 to 500 nM,< 100 nM,< 100 nM
CNc1cc(C)nc(Nc2cc3c(c(C4=CCN(C(C)C)CCC4)c2F)OCC3)n1 [Compound 195],100 to 500 nM,< 100 nM,< 100 nM
CNc1nc(Nc2cc3c(c(C4=CCN(C)CCC4)c2F)OCC3)nc(C)c1OC [Compound 196],500 to 2000 nM,100 to 500 nM,100 to 500 nM
CNc1nc(Nc2cc3c(c(C4=CCNCCC4)c2F)OCCO3)nc(C)c1F [Compound 197],500 to 2000 nM,100 to 500 nM,100 to 500 nM
CNc1cc(C)nc(Nc2cc3c(c(C4=CCNCCC4)c2O)OCC3)n1 [Compound 198],100 to 500 nM,< 100 nM,100 to 500 nM
CNc1cc(C)nc(Nc2cc3c(c(C4=CCN(CC(F)F)CCC4)c2F)OCC3)n1 [Compound 199],500 to 2000 nM,100 to 500 nM,100 to 500 nM
CNc1cc(C)nc(Nc2cc3c(c(C4=CC(C)N(C)CCC4)c2F)OCC3)n1 (stereo not drawn) [Compound 200],500 to 2000 nM,100 to 500 nM,100 to 500 nM

SMILES,IC50 (human EHMT2 913-1193),IC50 (human EHMT1 982-1266),IC50 (H3K9me2 in HCT116 cells)
CNc1cc(C)nc(Nc2cc3c(c(C4=CCN(C)CCC4)c2F)OCO3)n1 [Compound 203],< 100 nM,< 100 nM,< 100 nM
CNc1cc(C)nc(Nc2cc3c(c(C4=CCN(C)C(C)CC4)c2F)OCC3)n1 (stereo not drawn) [Compound 204],< 100 nM,< 100 nM,< 100 nM
CNc1nc(Nc2cc3c(c(C4=CCN(C)CCC4)c2F)OCO3)nc(C)c1F [Compound 205],500 to 2000 nM,100 to 500 nM,100 to 500 nM
CNc1cc(C)nc(Nc2cc3c(c(C4=CC(C)NCCC4)c2F)OCC3)n1 (stereo not drawn) [Compound 206],100 to 500 nM,< 100 nM,< 100 nM
CNc1cc(C)nc(Nc2cc3c(c(C4=CCNCCC4)c2F)OCO3)n1 [Compound 207],< 100 nM,< 100 nM,< 100 nM
CNc1cc(Nc2cc3c(c(C4=CCN(C)CCC4)c2F)OCO3)nc(C)c1F [Compound 208],100 to 500 nM,100 to 500 nM,100 to 500 nM
CNc1nc(Nc2cc3c(c(C4=CCNCCC4)c2F)OCO3)nc(C)c1F [Compound 209],100 to 500 nM,100 to 500 nM,< 100 nM
CCc1c(C)nc(Nc2cc3c(c(C4=CCN(C)CCC4)c2F)OCC3)nc1NC [Compound 210],100 to 500 nM,< 100 nM,< 100 nM
CNc1cc(Nc2cc3c(c(C4=CCNCCC4)c2F)OCO3)nc(C)c1F [Compound 211],< 100 nM,< 100 nM,< 100 nM
CCc1c(C)nc(Nc2cc3c(c(C4=CCNCCC4)c2F)OCC3)nc1NC [Compound 212],< 100 nM,< 100 nM,< 100 nM
CNc1nc(Nc2cc3c(c(C4=CCN(C)CCC4)c2F)OCC3)nc(C)c1C [Compound 214],< 100 nM,< 100 nM,< 100 nM
CNc1nc(Nc2cc3c(c(C4=CCN(C)CCC4)c2F)OCC3)nc(C)c1Cl [Compound 215],500 to 2000 nM,100 to 500 nM,100 to 500 nM
[2H]C([2H])([2H])CNc1cc(C)nc(Nc2cc3c(c(C4=CCN(C)CCC4)c2F)OCC3)n1 [Compound 217],< 100 nM,< 100 nM,< 100 nM
[2H]Cc1nc(Nc2cc3c(c(C4=CCN(C)CCC4)c2)OCC3)nc(NC)c1F [Compound 218],500 to 2000 nM,100 to 500 nM,100 to 500 nM
[2H]Cc1nc(Nc2cc3c(c(C4=CCN(C)CCC4)c2F)OCC3)nc(NC([2H])([2H])[2H])c1F [Compound 219],100 to 500 nM,100 to 500 nM,< 100 nM
[2H]Cc1nc(Nc2cc3c(c(C4=CCN(C)CCC4)c2)OCC3)nc(NC([2H])([2H])[2H])c1F [Compound 220],500 to 2000 nM,100 to 500 nM,100 to 500 nM
[2H]Cc1nc(Nc2cc3c(c(C4=CCN(C)CCC4)c2F)OCC3)nc(NC)c1F [Compound 221],500 to 2000 nM,100 to 500 nM,< 100 nM
[2H]Cc1nc(Nc2cc3c(c(C4=CCN(C)CCC4)c2F)OCC3)nc(NCC([2H])([2H])[2H])c1F [Compound 222],500 to 2000 nM,100 to 500 nM,100 to 500 nM
"CNc1nc(Nc2cc3c(c(C4=CCNCCC4)c2F)OCC3)nc(C)c1C [Compound 223, N2-[6-fluoro-7-(2,3,4,7-tetrahydro-1H-azepin-5-yl)-2,3-dihydrobenzofuran-5-yl]-N4,5,6-trimethyl-pyrimidine-2,4-diamine]",< 100 nM,< 100 nM,< 100 nM
